Assay results: ChEMBL document CHEMBL1131439, “Prediction of binding affinities for TIBO inhibitors of HIV-1 reverse transcriptase using Monte Carlo simulations in a linear response method” (J Med Chem, 1998)

Each molecule was assayed against Human immunodeficiency virus type 1 reverse transcriptase (Human immunodeficiency virus 1, UniProt Q72547) (assay: Inhibition of HIV-1 reverse transcriptase.).

Compound	IC50
CC(C)=CCN1Cc2c(Cl)ccc3[nH]c(=S)n(c23)C[C@@H]1C [TIVIRAPINE]	4.3 nM
CC(C)=CCN1Cc2c(C)ccc3[nH]c(=S)n(c23)C[C@@H]1C	13.6 nM
CC(C)=CCN1Cc2cc(Cl)cc3[nH]c(=S)n(c23)C[C@@H]1C	34 nM
CC(C)=CCN1Cc2c(F)ccc3[nH]c(=S)n(c23)C[C@@H]1C	5.8 nM
COc1ccc2[nH]c(=S)n3c2c1CN(CC=C(C)C)[C@@H](C)C3	33.9 nM
C#Cc1ccc2[nH]c(=S)n3c2c1CN(CC=C(C)C)[C@@H](C)C3	29.5 nM
CC(C)=CCN1Cc2cccc3[nH]c(=S)n(c23)C[C@@H]1C	44 nM
CC(C)=CCN1Cc2cccc3nc(O)n(c23)C[C@@H]1C	3160 nM
CC(C)=CCN1Cc2c(C)ccc3[nH]c(=O)n(c23)C[C@@H]1C	989 nM
CC(C)=CCN1Cc2c(C#N)ccc3[nH]c(=O)n(c23)C[C@@H]1C	1140 nM
CC(C)=CCN1Cc2c(C#N)ccc3[nH]c(=S)n(c23)C[C@@H]1C	56.3 nM
C#Cc1ccc2[nH]c(=O)n3c2c1CN(CC=C(C)C)[C@@H](C)C3	437 nM
